Source: patent US10213507B2, “Compositions and methods for treating HIV-associated neurocognitive disorders” (THE FLORIDA INTERNATIONAL UNIVERSITY BOARD OF TRUSTEES, priority 2017, dated 2019)
“Also recorded” adds a separate entry of the source.

Tests used:
σ-1 receptor = biological target: T1, σ-1 receptor (Mus musculus, UniProt O55242); conditions: pre-treatment of mice; cited from earlier work
T1 construct: from tissue; host or cells: whole animal (mice), endogenous receptor

[1] = system: Aβ secretion by SH-APP cells; test: Aβ 1-40 ELISA of culture supernatants of WA treated SH-APP cells; type: cell-based, human
Procedure: (n=3; *, p≤0.05; NS-Not Significant).
Human neuroblastoma cells transfected with APP gene (SH-APP) were cultured with different concentrations of WA (0.5 to 2.5 μM) and the culture supernatants were tested for Aβ 1-40 by ELISA.

CHME-5 cells = test: XTT cytotoxicity assay in CHME-5 cells; type: cell-based; conditions: 1 μM WA, 48 hours
Procedure: (§1) FIGS. 6A-6C show Effect of WA on HIV-1 suppression and its cytotoxicity in microglial (CHME-5) cell±HIV. […] (A) p24 study; (B) LTR and (C) Cytotoxicity study: XTT assay was performed on WA treated CHME-5 cells (n=3; *, p≤0.05; ****, p≤0.001; NS-Not Significant).
(§2) Human microglial cells (CHME-5) were infected with HIV and treated with different concentrations of WA (0.5 and 1 μM). Seven days post-infection (dpi), culture supernatant was used for p24 ELISA and cell pellet was used for the […] (LTR) measurement using quantitative real-time PCR.

HIV = HIV LTR detection in HIV-exposed SH-APP cells; type: cell-based; conditions: WA 2 μm, HIV 100 ng, 1 dpi; 30,000 copies with HIV alone
From the text: (n=3; *, p≤0.05; **, p≤0.01; and ***, p≤0.001.)
AβPP-transfected SH-APP cells are susceptible to HIV infection.

HIV-1 = test: HIV infection of CHME-5 microglial cells (p24 ELISA, LTR quantitative real-time PCR); type: cell-based; conditions: WA 0.5 and 1 μM, 7 dpi
Procedure: as §1, §2

SH-APP cells = test: MTT cytotoxicity assay in SH-APP cells; type: cell-based, human; conditions: WA 0.5 to 2.5 μM, 48 hours
[2] = system: Aβ-secretion in SH-APP cells; test: WA BBB permeability without MENPs: Aβ1-40 ELISA of SH-APP cells in the basal chamber of the BBB trans-well; type: cell-based, human
Procedure: (§3) FIGS. 3A-3B provide: A) Effect of WA and MENP on in-vitro BBB integrity: WA (2 μM) and MENPs (100 μg) were added in the upper chamber of the BBB model with magnet (0.8 T) placed underneath the culture plate for 3 h duration. After treatment, Transepithelial Electrical Resistance (TEER) values were calculated and compared with control; B) Aβ1-40 ELISA from supernatant from SHAPP cells: To study WA (2 μM) efficacy and BBB permeability without MENPs, Aβ1-40 specific enzyme-linked immunosorbent assay (ELISA) was performed using supernatant collected from the basal side of the BBB trans-well where SHAPP cells were seeded at the bottom of culture plate. (n=3; NS-Not Significant.)
(§4) In-vitro BBB model was developed using brain microvascular endothelial cells, astrocytes and pericytes. The integrity of BBB was examined by measuring the TEER values before and after addition of free WA (2 μM) and free MENPs (100 μg) to the apical chamber of in vitro BBB model.

[3] = system: Aβ-production in SH-APP cells; test: HIV-induced β-amyloid production in SH-APP cells by flow cytometry; type: cell-based, human; conditions: HIV 100 ng 7 days, WA 2 μM 48 hours, Aβ 1-40 specific antibody
Procedure: FIGS. 7A-7D show quantitative analysis of β-amyloid production after 7 days of HIV infection and 48 hours of WA treatment (2 μM) on SH-APP (neuroblastoma cell line) using flow cytometry. An increase in β-amyloid production is observed in cells treated with B) HIV-100 ng; compared to A) Control.

[4] = system: in-vitro BBB model (brain microvascular endothelial cells, astrocytes and pericytes); test: In-vitro BBB model integrity (TEER); type: cell-based, human; conditions: free WA 2 μM in apical chamber, external magnetic field 0.8 T, 3 h
Procedure: as §3, §4
Preparation and validation of BBB integrity: Established in vitro BBB model can be used. The BBB model can be constructed using primary endothelial cells (HBMEC), pericytes (HMVP) and astrocytes (HA). BBB formation and intactness can be determined by measuring the TEER using the REMS AutoSampler BBB device and permeability to fluorescein isothiocyanate-dextran (FITC dextran). […]

[5] = Binding of miR-107 to MENPs; type: physicochemical; conditions: 100 nM miR-107, 100 μg MENPs, PBS pH 7.4, 30 minutes
Procedure: (§5) FIGS. 2A-2B provide miR-107 binding and release. A) % binding of miR-107 with MENP with respect to different concentrations; B) Release kinetics of miR-107 from MENP surface as a function of externally applied alternating current magnetic field strength (60 and 80 Oe) at different time points (10, 20 and 30 min).
(§6) Binding kinetics with respect to different concentrations of miR-107 was performed using 100 μg of MENPs (FIG. 2A). Sample were incubated in phosphate buffered saline (PBS) (pH-7.4) and kept on vertical rotator under constant rotation (200 rpm) for 30 minutes. […] Release kinetics of miR-107 from MENPs was studied using UV spectroscopy at 260 nm. 100 nM of miR-107 was incubated with 100 μg of MENPs in 1 mL PBS (pH 7.4) for 30 mins and its release kinetics performed using alternating current magnetic field via electromagnetic coil at various time points (i.e., 10, 20, and 30 minutes).

[6] = Release of miR-107 from MENPs under alternating current magnetic field (UV spectroscopy at 260 nm); type: physicochemical; conditions: 30 mins
Procedure: as §5, §6

T1 sequence (O55242 whole entry): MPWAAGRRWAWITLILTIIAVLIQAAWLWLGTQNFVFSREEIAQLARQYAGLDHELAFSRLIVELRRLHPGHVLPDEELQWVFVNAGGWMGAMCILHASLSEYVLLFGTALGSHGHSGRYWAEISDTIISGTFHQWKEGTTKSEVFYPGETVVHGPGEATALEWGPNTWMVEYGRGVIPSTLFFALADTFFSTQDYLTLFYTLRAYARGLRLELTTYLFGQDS

CN1CCN(CCc2ccc(Cl)c(Cl)c2)CC1.Cl.Cl [BD1063, 1-[2-(3,4-Dichlorophenyl)ethyl]-4-methylpiperazine dihydrochloride]
cocaine-induced convulsions (σ-1 receptor): significantly attenuated | cocaine-induced locomotor stimulatory effects (σ-1 receptor): significantly attenuated

CC1=C(CO)C(=O)O[C@@H]([C@@H](C)[C@H]2CC[C@H]3[C@@H]4C[C@H]5O[C@]56[C@@H](O)C=CC(=O)[C@]6(C)[C@H]4CC[C@]23C)C1 [WA, 5,6-Epoxy-4,27-dihydroxy-1-oxowitha-2,24-dienolide]
β-Amyloid production (Aβ1-40 ELISA) ([1]; 2 µM WA): significantly attenuates | Aβ secretion (Aβ 1-40) ([1]; WA 0.5 to 2.5 μM): dose dependent decrease | cell viability (CHME-5 cells): > 80% | HIV induced LTR copies (HIV): 400 copies | HIV-1 replication, LTR levels (HIV-1; cell pellet): significant suppression | HIV-1 replication, p24 levels (HIV-1; culture supernatant): significant suppression | cytotoxicity (SH-APP cells): do not show any cytotoxic effects; also recorded: no significant cytotoxicity | Aβ-secretion in SH-APP cells in basal chamber vs untreated control ([2]; WA 2 μM without MENP in the apical chamber): no changes in the Aβ-secretion | crossing of the BBB ([2]; free WA 2 μM, not bound to MENP, apical chamber): could not cross the BBB | HIV-induced Aβ levels [3]: significantly decreased | TEER values (BBB integrity) [4]: no difference in TEER values

miR-107: microRNA 107, inhibitor of BACE-1 expression; SEQ ID NO: 1 (pre-miRNA), SEQ ID NO: 2 (mature) (AGCAGCAUUGUACAGGGCUAUCA; listed as RNA, chemistry not given here; listed as Homo sapiens)
maximum miR-107 binding to MENPs [5]: 70% | release of miR-107 from MENPs ([6]; 60 Oe alternating current magnetic field): 75% | release of miR-107 from MENPs ([6]; 100 Hz, 80 Oe alternating current magnetic field): ~100%
